Laboratory results from patent US20260070945A1, “MACROCYCLIC IMMUNOMODULATORS” (Bristol-Myers Squibb Company, priority 2022, published 2026).
Where a SMILES comes first, the peptide text is derived from it. Bridges are numbered along the chain shown (N, C = ends). [ ]: non-standard residue; d: D form. The star is where a group is joined. ξ: configuration not given here. Phe(4-COOH) = N[C@@H](Cc1ccc(C(=O)O)cc1)C(=O)O; Bip = N[C@@H](Cc1ccc(-c2ccccc2)cc1)C(=O)O; Phe(3-Me) = Cc1cccc(C[C@H](N)C(=O)O)c1; NH(CH2)12COOH = O=C(O)CCCCCCCCCCCCN*; Val(3-OH) = CC(C)(O)[C@H](N)C(=O)O; 4Pal = N[C@@H](Cc1ccncc1)C(=O)O; 3Thi = N[C@@H](Cc1ccsc1)C(=O)O; Aad = N[C@@H](CCCC(=O)O)C(=O)O; Cha = N[C@@H](CC1CCCCC1)C(=O)O; Cit = NC(=O)NCCC[C@H](N)C(=O)O; Ile(3ξ) = CCC(C)[C@H](N)C(=O)O; Thr(3ξ) = CC(O)[C@H](N)C(=O)O; Carboxymethyl = O=C(O)C*; NMeA = CN[C@@H](C)C(=O)O; Orn = NCCC[C@H](N)C(=O)O; Aun = NCCCCCCCCCCC(=O)O; Dab = NCC[C@H](N)C(=O)O; Dap = NC[C@H](N)C(=O)O; AEEA = NCCOCCOCC(=O)O

Target: T1, PD-1/PD-L1 interaction (PE-labeled human PD-L1-Ig binding to Jurkat cell line over-expressing human PD-1) (Homo sapiens, UniProt Q15116)
T1 construct: expressed in transfected cells; host or cells: Jurkat
T1 sequence (Q15116 25-288): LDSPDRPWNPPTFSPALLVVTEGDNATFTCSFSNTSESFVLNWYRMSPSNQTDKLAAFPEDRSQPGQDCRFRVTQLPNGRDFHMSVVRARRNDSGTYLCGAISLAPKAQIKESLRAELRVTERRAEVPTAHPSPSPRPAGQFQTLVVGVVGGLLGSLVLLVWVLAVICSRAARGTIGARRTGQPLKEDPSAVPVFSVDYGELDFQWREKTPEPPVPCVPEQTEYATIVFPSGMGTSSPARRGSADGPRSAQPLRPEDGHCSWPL
Assay: Jurkat-PD-1 Cell Binding High-Content Screening Assay (CBA)
Details: Jurkat-hPD-1 cells, PE-labeled PD-L1-Ig 20 nM final; read-out: Jurkat HPD1 PDL1 IC50
Method in brief: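 Cells 8×10^3/well, DMEM + 10% FCS; cpd 2 h, 37 °C; PE–PD-L1-Ig 20 nM final, 1 h; PFA fix + Hoechst 33342, 3× dPBS wash; high-content imager.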

| SMILES | IC50 [µM] |
| --- | --- |
| Cc1cccc(C[C@@H]2NC(=O)[C@H](CC(=O)O)NC(=O)[C@H](Cc3ccc(OCC(=O)O)cc3)NC(=O)[C@H]([C@@H](C)O)NC(=O)CSC[C@@H](C(=O)N[C@@H](CCCN)C(=O)NCCOCCOCC(=O)NCCCCCCCCCCC(=O)O)NC(=O)[C@H](CCC(=O)O)NC(=O)[C@H](C(C)C)NC(=O)[C@H](CC3CCCCC3)NC(=O)[C@H](CCN)NC(=O)[C@@H](CC(C)C)NC(=O)[C@H](C)N(C)C(=O)[C@H](Cc3ccc(OCC(=O)O)cc3)NC(=O)[C@H](Cc3ccc(-c4ccccc4)cc3)NC(=O)[C@H](Cc3ccc(OCC(=O)O)cc3)NC2=O)c1 [Example 1373] ({CH2CO}-TY(Carboxymethyl)D[Phe(3-Me)]Y(Carboxymethyl)[Bip]Y(Carboxymethyl)[NMeA][dL][Dab][Cha]VEC[Orn][AEEA][Aun]-OH; thioether N-14) | 0.0317 |
| Cc1cccc(C[C@@H]2NC(=O)[C@H](CC(=O)O)NC(=O)[C@H](Cc3ccc(OCC(=O)O)cc3)NC(=O)[C@H](CCCC(=O)O)NC(=O)CSC[C@@H](C(=O)N[C@@H](CCN)C(=O)NCCCCCCCCCCC(=O)O)NC(=O)[C@H](CO)NC(=O)[C@H](C(C)C)NC(=O)[C@H](CC3CCCCC3)NC(=O)[C@H](CCN)NC(=O)[C@@H](CC(C)C)NC(=O)[C@H](C)N(C)C(=O)[C@H](Cc3ccc(O)cc3)NC(=O)[C@H](Cc3ccc(-c4ccccc4)cc3)NC(=O)[C@H](Cc3ccc(OCC(=O)O)cc3)NC2=O)c1 [Example 1280] ({CH2CO}-[Aad]Y(Carboxymethyl)D[Phe(3-Me)]Y(Carboxymethyl)[Bip]Y[NMeA][dL][Dab][Cha]VSC[Dab][Aun]-OH; thioether N-14) | 0.0293 |
| CCC(C)[C@@H]1NC(=O)[C@H](CC(C)C)NC(=O)[C@H](CCN)NC(=O)[C@@H](CC(C)C)NC(=O)[C@H](C)N(C)C(=O)[C@H](C(C)CC)NC(=O)[C@H](Cc2ccc(-c3ccccc3)cc2)NC(=O)[C@H](C(C)CC)NC(=O)[C@H](Cc2c[nH]c3ccccc23)NC(=O)[C@H](CC(=O)O)NC(=O)[C@H](Cc2ccc(OCC(=O)O)cc2)NC(=O)[C@H](C(C)O)NC(=O)CSC[C@@H](C(=O)N[C@@H](CN)C(=O)NCCOCCOCC(=O)NCCCCCCCCCCC(=O)O)NC(=O)[C@H](CO)NC1=O (stereo partly drawn) [Example 2081] ({CH2CO}-[Thr(3ξ)]Y(Carboxymethyl)DW[Ile(3ξ)][Bip][Ile(3ξ)][NMeA][dL][Dab]L[Ile(3ξ)]SC[Dap][AEEA][Aun]-OH; thioether N-14) | 0.206 |
| Cc1cccc(C[C@@H]2NC(=O)[C@H](CC(=O)O)NC(=O)[C@H](Cc3ccc(OCC(=O)O)cc3)NC(=O)[C@H](CCCNC(=N)N)NC(=O)CSC[C@@H](C(=O)N[C@H](CC(N)=O)C(=O)NCCCCCCCCCCC(=O)O)NC(=O)[C@H](C(C)O)NC(=O)[C@H](C(C)C)NC(=O)[C@H](CC3CCCCC3)NC(=O)[C@H](CCN)NC(=O)[C@@H](CC(C)C)NC(=O)[C@H](C)N(C)C(=O)[C@H](CCCNC(N)=O)NC(=O)[C@H](Cc3ccc(-c4ccccc4)cc3)NC(=O)[C@H](C(C)C)NC2=O)c1 (stereo partly drawn) [Example 2312] ({CH2CO}-RY(Carboxymethyl)D[Phe(3-Me)]V[Bip][Cit][NMeA][dL][Dab][Cha]V[Thr(3ξ)]C[dN][Aun]-OH; thioether N-14) | 0.0087 |
| CC(C)C[C@@H]1NC(=O)[C@H](Cc2c[nH]c3ccccc23)NC(=O)[C@H](CC(=O)O)NC(=O)[C@H](Cc2ccncc2)NC(=O)[C@H](Cc2ccc(OCC(=O)O)cc2)NC(=O)CSC[C@@H](C(=O)N[C@@H](CN)C(=O)NCCCCCCCCCCC(=O)O)NC(=O)[C@H](CO)NC(=O)[C@H](C(C)C)NC(=O)[C@H](CC2CCCCC2)NC(=O)[C@H](CCN)NC(=O)[C@@H](CC(C)C)NC(=O)[C@H](C)N(C)C(=O)[C@H](C(C)C)NC(=O)[C@H](Cc2ccc(-c3ccccc3)cc2)NC1=O [Example 1082] ({CH2CO}-Y(Carboxymethyl)[4Pal]DWL[Bip]V[NMeA][dL][Dab][Cha]VSC[Dap][Aun]-OH; thioether N-14) | 0.0282 |
| Cc1cccc(C[C@@H]2NC(=O)[C@H](CC(=O)O)NC(=O)[C@H](Cc3ccc(C(=O)O)cc3)NC(=O)[C@H]([C@@H](C)O)NC(=O)CSC[C@@H](C(=O)N[C@@H](CCN)C(=O)NCCOCCOCC(=O)NCCCCCCCCCCCCC(=O)O)NC(=O)[C@H](CCC(=O)O)NC(=O)[C@H](C(C)(C)O)NC(=O)[C@H](CC3CCCCC3)NC(=O)[C@H](CCN)NC(=O)[C@@H](CC(C)C)NC(=O)[C@H](C)N(C)C(=O)[C@H](Cc3ccc(C(=O)O)cc3)NC(=O)[C@H](Cc3ccc(-c4ccccc4)cc3)NC(=O)[C@H](Cc3ccc(C(=O)O)cc3)NC2=O)c1 [Example 1432] ({CH2CO}-T[Phe(4-COOH)]D[Phe(3-Me)][Phe(4-COOH)][Bip][Phe(4-COOH)][NMeA][dL][Dab][Cha][Val(3-OH)]EC[Dab][AEEA]-{NH(CH2)12COOH}; thioether N-14) | 0.105 |
| CC(C)C[C@@H]1NC(=O)[C@H](Cc2c[nH]c3ccccc23)NC(=O)[C@H](CC(=O)O)NC(=O)[C@H](Cc2ccc(C(=O)O)cc2)NC(=O)[C@H](Cc2ccc(OCC(=O)O)cc2)NC(=O)CSC[C@@H](C(=O)N[C@@H](CCN)C(=O)NCCOCCOCC(=O)NCCCCCCCCCCC(=O)O)NC(=O)[C@H](CCCCN)NC(=O)[C@H](C(C)C)NC(=O)[C@H](CC2CCCCC2)NC(=O)[C@H](CCN)NC(=O)[C@@H](C)NC(=O)[C@H](C)N(C)C(=O)[C@H](C(C)C)NC(=O)[C@H](Cc2ccc(-c3ccccc3)cc2)NC1=O [Example 2207] ({CH2CO}-Y(Carboxymethyl)[Phe(4-COOH)]DWL[Bip]V[NMeA][dA][Dab][Cha]VKC[Dab][AEEA][Aun]-OH; thioether N-14) | 0.0099 |
| Cc1cccc(C[C@@H]2NC(=O)[C@H](CC(=O)O)NC(=O)[C@H](Cc3ccc(O)cc3)NC(=O)[C@H](Cc3ccccc3)NC(=O)CSC[C@@H](C(=O)N[C@@H](CCN)C(=O)NCCCCCCCCCCC(=O)O)NC(=O)[C@H](CCCN)NC(=O)[C@H](C(C)C)NC(=O)[C@H](CC(C)C)NC(=O)[C@H](CCN)NC(=O)[C@@H](C)NC(=O)[C@H](C)N(C)C(=O)[C@H](C(C)C)NC(=O)[C@H](Cc3ccc(-c4ccccc4)cc3)NC(=O)[C@H](CC(C)C)NC2=O)c1 [Example 2198] ({CH2CO}-FYD[Phe(3-Me)]L[Bip]V[NMeA][dA][Dab]LV[Orn]C[Dab][Aun]-OH; thioether N-14) | 0.073 |

Same assay, conditions: PE-labeled PD-L1-Ig 20 nM final, Jurkat-hPD-1 cells; read-out: Jurkat HPD1 PDL1 IC50

| SMILES | IC50 [µM] |
| --- | --- |
| Cc1cccc(C[C@@H]2NC(=O)[C@H](CC(=O)O)NC(=O)[C@H](Cc3ccc(C(=O)O)cc3)NC(=O)[C@H](Cc3ccsc3)NC(=O)CSC[C@@H](C(=O)N[C@@H](CCN)C(=O)NCCOCCOCC(=O)NCCCCCCCCCCC(=O)O)NC(=O)[C@H](CCC(=O)O)NC(=O)[C@H](C(C)(C)O)NC(=O)[C@H](CC3CCCCC3)NC(=O)[C@H](CCN)NC(=O)[C@@H](CC(C)C)NC(=O)[C@H](C)N(C)C(=O)[C@H](Cc3ccc(C(=O)O)cc3)NC(=O)[C@H](Cc3ccc(-c4ccccc4)cc3)NC(=O)[C@H](Cc3ccc(C(=O)O)cc3)NC2=O)c1 [Example 2506] ({CH2CO}-[3Thi][Phe(4-COOH)]D[Phe(3-Me)][Phe(4-COOH)][Bip][Phe(4-COOH)][NMeA][dL][Dab][Cha][Val(3-OH)]EC[Dab][AEEA][Aun]-OH; thioether N-14) | 0.0103 |
